Like-named read-outs stand apart in the source and are kept apart here.
Experiments:
[1] = test system: human growth hormone (532) promoter; test: High-throughput luciferase reporter assay, human Growth Hormone promoter (Screen III); assay type: cell-based; conditions: 532 cells, 6 hours; for FOLD INDUCTION RELATIVE TO SOLVENT CONTROL, hGH: Screen III activators; for FOLD INHIBITION RELATIVE TO SOLVENT CONTROL, hGH: Screen III inhibitors
[2] = test system: human G-CSF (G21) promoter; test: High-throughput luciferase reporter assay, G-CSF promoter (Screen III); conditions: for FOLD INDUCTION RELATIVE TO SOLVENT CONTROL, GCSF: Screen III activators
MMTV (M10) promoter = test: High-throughput luciferase reporter assay, MMTV promoter (Screen III); assay type: cell-based, mouse; conditions: M10 cells, 6 hours; for FOLD INDUCTION RELATIVE TO SOLVENT CONTROL, MMTV: Screen III activators; for FOLD INHIBITION RELATIVE TO SOLVENT CONTROL, MMTV: Screen III inhibitors
Method: pMluci and pSV2Neo, an antibiotic resistance plasmid (112), were co-transfected into NIH/3T3 mouse fibroblast cells using the calcium phosphate precipitation method (103) with a commercially available kit (Pharmacia, Piscataway N.J.). Two days later, cells were transferred to media containing 0.4 mg/ml G418 and were grown for an additional 10-14 days. G418-resistant clones were isolated by standard methods. Once sufficient cell numbers were obtained, clones were analyzed based on several criteria: constitutive luciferase production, induction of luciferase expression by dexamethasone (1 μm, Sigma, St. Louis, Mo.), satisfactory attachment to microtiter plates used in the high-throughput screen and acceptable standard deviation in multiple luciferase expression assays (see below for assay protocol). This analysis was carried out using the luciferase assay conditions described above. Of the clones which satisfied the above criteria for the high throuphput screen, one clone, M10, was selected for use.

[3] = Screen III inhibitors, G21 cells, 6 hours

Structure (SMILES)	FOLD INDUCTION RELATIVE TO SOLVENT CONTROL, hGH [1]	FOLD INDUCTION RELATIVE TO SOLVENT CONTROL, GCSF ([2]; G21 cells, 6 hours)	FOLD INDUCTION RELATIVE TO SOLVENT CONTROL, MMTV (MMTV (M10) promoter)	FOLD INHIBITION RELATIVE TO SOLVENT CONTROL, hGH [1]	FOLD INHIBITION RELATIVE TO SOLVENT CONTROL, GCSF [2, 3]	FOLD INHIBITION RELATIVE TO SOLVENT CONTROL, MMTV (MMTV (M10) promoter)	FOLD INHIBITION RELATIVE TO SOLVENT CONTROL, GCSF [2]
CON(C)C(=O)Nc1ccc(Cl)cc1 [compound 552]	5.31 fold	0.81 fold	0.86 fold	–	–	–	–
CC1=CC(=C(c2cc(C)c(O)c(C(=O)O)c2)c2c(Cl)ccc(S(=O)(=O)O)c2Cl)C=C(C(=O)O)C1=O [compound 556]	–	–	–	33.33 fold	0.73 fold	0.87 fold	–
CC(=O)NCCCC[C@H](NC(C)=O)C(=O)O [compound 577]	–	–	–	4.00 fold	0.64 fold	0.68 fold	–
O=C(O[C@H](C(=O)O)[C@H](OC(=O)c1ccccc1)C(=O)O)c1ccccc1 [compound 578]	–	–	–	4.00 fold	0.65 fold	0.91 fold	–
COc1ccc(CC(=O)O)cc1OC [compound 629]	1.05 fold	0.85 fold	2.48 fold	–	–	–	–
O=C(O)CC1NC(=O)NC1=O (stereo not drawn) [compound 630]	–	–	–	3.57 fold	0.70 fold	0.74 fold	–
O=C(O)c1[nH]c(=O)[nH]c(=O)c1I [compound 633]	0.86 fold	1.02 fold	2.46 fold	–	–	–	–
Nc1c(O)c(S(=O)(=O)O)c(O)c2c1C(=O)c1ccccc1C2=O [compound 640]	–	–	–	5.00 fold	0.64 fold	0.59 fold	–
O=C(c1ccc(O)c(O)c1)c1c(O)cc(O)cc1O [compound 660]	–	–	–	0.34 fold	10.0 fold	1.04 fold	–
CN(C)c1ccc(C(=C2C=CC(=[N+](C)C)C=C2)c2ccc([N+](C)(C)C)cc2)cc1 [compound 670]	0.52 fold	> 3 fold	0.79 fold	–	–	–	–
C1CCNCC1 [compound 759]	–	–	–	5.88 fold	–	0.95 fold	0.64
CC(=O)OCC(=O)[C@@]1(O)CC[C@H]2[C@@H]3CCC4=CC(=O)C=C[C@]4(C)[C@H]3[C@@H](O)C[C@@]21C [compound 765]	1.30 fold	0.96 fold	2.66 fold	–	–	–	–
CCOc1ccc2nc3cc(N)ccc3c(N)c2c1 [compound 790]	5.94 fold	0.01 fold	0.58 fold	–	–	–	–
O=C1OC2(c3cc(I)c(O)c(I)c3Oc3c2cc(I)c(O)c3I)c2c(Cl)c(Cl)c(Cl)c(Cl)c21 [compound 792]	5.31 fold	0.94 fold	1.21 fold	–	–	–	–
Clc1ccc(Sc2cc(Cl)c(Cl)cc2Cl)cc1 [compound 828]	1.34 fold	1.47 fold	2.20 fold	–	–	–	–
N=c1ccc2nc3ccc(N)cc3sc-2c1 [compound 836]	0.23 fold	3.20 fold	0.58 fold	–	–	–	–
CC1(C)O[C@@H]2C[C@H]3[C@@H]4CCC5=CC(=O)C=C[C@]5(C)[C@@]4(F)[C@@H](O)C[C@]3(C)[C@]2(C(=O)CO)O1 [compound 848]	1.28 fold	0.75 fold	2.43 fold	–	–	–	–
CCCCCCCCCCCCCCCC(=O)OCC(COC(=O)CCCCCCCCCCCCCCC)OC(=O)CCCCCCCCCCCCCCC [compound 856]	6.49 fold	0.28 fold	0.42 fold	–	–	–	–
Nc1ccc(C=CC(=O)O)cc1 [compound 1234]	0.51 fold	4.97 fold	1.03 fold	–	–	–	–
Cc1c(C2(c3cc(Br)c(O)c(Br)c3C)OS(=O)(=O)c3ccccc32)cc(Br)c(O)c1Br [compound 1251]	15.19 fold	0.14 fold	0.33 fold	–	–	–	–
Clc1cc(Cl)cc(Br)c1 [compound 1255]	0.43 fold	6.74 fold	1.09 fold	–	–	–	–

Structure (SMILES)	FOLD INDUCTION RELATIVE TO SOLVENT CONTROL, hGH [1]	FOLD INDUCTION RELATIVE TO SOLVENT CONTROL, GCSF ([2]; G21 cells, 6 hours)	FOLD INDUCTION RELATIVE TO SOLVENT CONTROL, MMTV (MMTV (M10) promoter)	FOLD INHIBITION RELATIVE TO SOLVENT CONTROL, hGH [1]	FOLD INHIBITION RELATIVE TO SOLVENT CONTROL, GCSF [2, 3]	FOLD INHIBITION RELATIVE TO SOLVENT CONTROL, MMTV (MMTV (M10) promoter)	FOLD INHIBITION RELATIVE TO SOLVENT CONTROL, GCSF [2]
Nc1c(Cl)ncnc1Cl [compound 1269]	0.91 fold	0.72 fold	2.18 fold	–	–	–	–
Nc1ccc2c(c1)Cc1ccccc1-2 [compound 1316]	1.39 fold	0.74 fold	2.33 fold	–	–	–	–
Nc1ccc2c(c1)C(=O)c1ccccc1-2 [compound 1318]	0.85 fold	1.13 fold	2.41 fold	–	–	–	–
Nc1ccc(S(=O)(=O)O)c2cccc(O)c12 [compound 1337]	15.87 fold	0.07 fold	0.23 fold	–	–	–	–
NCc1ccc(S(N)(=O)=O)cc1 [compound 1375]	0.04 fold	8.94 fold	1.37 fold	–	–	–	–
Cc1ccc(N)c(S(=O)(=O)O)c1 [compound 1376]	0.04 fold	6.37 fold	1.32 fold	–	–	–	–
Cc1ccc(C(=O)c2ccccc2N)cc1 [compound 1384]	0.50 fold	1.33 fold	2.43 fold	–	–	–	–
Cc1cc(N)sn1 [compound 1397]	0.57 fold	3.63 fold	1.13 fold	–	–	–	–
Nc1ccccc1SSc1ccccc1N [compound 1482]	0.54 fold	3.99 fold	1.07 fold	–	–	–	–
Nc1ccc(SSc2ccc(N)cc2)cc1 [compound 1483]	0.38 fold	4.64 fold	1.09 fold	–	–	–	–
Nc1nc(-c2ccccc2)cs1 [compound 1499]	5.55 fold	0.24 fold	0.61 fold	–	–	–	–
Nc1nc2nc[nH]c2c(=S)[nH]1 [compound 1521]	0.73 fold	3.59 fold	0.92 fold	–	–	–	–
Nc1nccs1 [compound 1550]	5.44 fold	0.04 fold	0.87 fold	–	–	–	–
NC1=NCCS1 [compound 1552]	7.26 fold	1.23 fold	0.52 fold	–	–	–	–
Nc1c(Cl)c(Cl)nc(C(=O)O)c1Cl [compound 1561]	8.05 fold	0.23 fold	0.48 fold	–	–	–	–
Brc1ccc2c3c(cccc13)CC2 [compound 1573]	0.34 fold	1.49 fold	4.30 fold	–	–	–	–
Nc1ncnc2c1nc(Br)n2[C@@H]1O[C@H](CO)[C@@H](O)[C@H]1O [compound 1583]	0.12 fold	5.82 fold	0.88 fold	–	–	–	–
Cc1ccc(P(CCP(c2ccc(C)cc2)c2ccc(C)cc2)c2ccc(C)cc2)cc1 [compound 1591]	–	–	–	5.55 fold	0.56 fold	0.96 fold	–
CC1(C)[C@@H](C(=O)OCC(F)(F)C(F)(F)C(F)(F)C(F)(F)C(F)(F)C(F)F)CC[C@@]1(C)C(=O)OCC(F)(F)C(F)(F)C(F)(F)C(F)(F)C(F)(F)C(F)F [compound 1592]	0.74 fold	3.20 fold	1.34 fold	–	–	–	–
O=C(Nc1cccc(C2=NCCN2)c1)Nc1cccc(C2=NCCN2)c1 [compound 1598]	5.32 fold	0.72 fold	1.27 fold	–	–	–	–
